Test results published in ChEMBL document CHEMBL1201862, “PubChem BioAssay data set” (2004).
The source made the active and inactive calls.

Legend:
Assay type in all cases: functional
[1] = molecular target: Sphingosine 1-phosphate receptor 1 (Homo sapiens, UniProt P21453); assay: Late-stage fluorescence-based dose-response cell-based counterscreen assay to identify agonists of the Sphingosine 1-Phosphate Receptor 4 (S1P4): Sphingosine 1-Phosphate Receptor 1 (S1P1) agonist assay Set 2.
[2] = molecular target: Sphingosine 1-phosphate receptor 5 (Homo sapiens, UniProt Q9H228); assay: S1P5 receptor agonists, human, late-stage follow-up, counter-screen for S1P4 agonist project, cell-based, fluorescence, set 2 (AID 504867)
[3] = molecular target: Sphingosine 1-phosphate receptor 3 (Homo sapiens, UniProt Q99500); assay: Late-stage fluorescence-based dose-response cell-based counterscreen assay to identify agonists of the Sphingosine 1-Phosphate Receptor 4 (S1P4): Sphingosine 1-Phosphate Receptor 3 (S1P3) agonist assay Set 2.
[4] = molecular target: Sphingosine 1-phosphate receptor 2 (Homo sapiens, UniProt O95136); assay: S1P2 receptor agonists, human, late-stage follow-up, counter-screen for S1P4 agonist project, cell-based, fluorescence, set 2 (AID 504873)
[5] = molecular target: Protein kinase C theta type (Homo sapiens, UniProt Q04759); assay: Navigating the Kinome. Panel member name: PRKCQ
[6] = molecular target: Cyclin-dependent kinase 19 (Homo sapiens, UniProt Q9BWU1); assay: Navigating the Kinome. Panel member name: CDC2L6
[7] = molecular target: Cyclin-dependent kinase 9 (Homo sapiens, UniProt P50750);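 also: value from the CDK9 entry of a kinome-spanning kinase panel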
Activated CDC42 kinase 1 = Activated CDC42 kinase 1 (Homo sapiens, UniProt Q07912); assay: Navigating the Kinome. Panel member name: ACK1
Focal adhesion kinase 1 = Focal adhesion kinase 1 (Homo sapiens, UniProt Q05397);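 also: measured as one member of a kinome panel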
[8] = molecular target: cAMP-dependent protein kinase catalytic subunit alpha (Homo sapiens, UniProt P17612)
[9] = molecular target: Dual specificity protein kinase CLK4 (Homo sapiens, UniProt Q9HAZ1)
[10] = molecular target: Cyclin-dependent kinase 8 (Homo sapiens, UniProt P49336); assay: Navigating the Kinome. Panel member name: CDK8
Aurora kinase A = Aurora kinase A (Homo sapiens, UniProt O14965);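 also: value from the Navigating the Kinome kinase panel profiling, panel entry STK6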
[11] = molecular target: Proto-oncogene tyrosine-protein kinase receptor Ret (Homo sapiens, UniProt P07949);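 also: measured within a kinome-wide profiling panel, RET as the panel member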
[12] = molecular target: Glycogen synthase kinase-3 beta (Homo sapiens, UniProt P49841);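 also: value comes from a broad kinome profiling panel, with GSK3B as the panel member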
[13] = molecular target: Vascular endothelial growth factor receptor 2 (Homo sapiens, UniProt P35968)
[14] = molecular target: Dual specificity tyrosine-phosphorylation-regulated kinase 1B (Homo sapiens, UniProt Q9Y463); assay: Navigating the Kinome. Panel member name: DYRK1B
[15] = molecular target: Glycogen synthase kinase-3 alpha (Homo sapiens, UniProt P49840);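 also: GSK3A result taken from a broad kinome-wide kinase panel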
[16] = molecular target: Cyclin-dependent kinase 5 (Homo sapiens, UniProt Q00535);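 also: CDK5 measured as one member of a kinase profiling panel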
[17] = molecular target: Macrophage colony-stimulating factor 1 receptor (Homo sapiens, UniProt P07333);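 also: value comes from the Navigating the Kinome screening panel, CSF1R member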
[18] = molecular target: Death-associated protein kinase 3 (Homo sapiens, UniProt O43293);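 also: measured as one member of a kinome-wide profiling panel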
[19] = molecular target: Dual specificity tyrosine-phosphorylation-regulated kinase 1A (Homo sapiens, UniProt Q13627);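 also: measured against DYRK1A as one member of a broad kinome profiling panel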
[20] = molecular target: Homeodomain-interacting protein kinase 2 (Homo sapiens, UniProt Q9H2X6);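 also: measured within a kinome-wide kinase profiling panel, HIPK2 being one panel member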
[21] = molecular target: Mitogen-activated protein kinase kinase kinase kinase 4 (Homo sapiens, UniProt O95819)
[22] = molecular target: Cell division cycle 7-related protein kinase (Homo sapiens, UniProt O00311);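 also: value obtained from a kinome-wide kinase panel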
[23] = molecular target: Cyclin-dependent kinase 2 (Homo sapiens, UniProt P24941);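 also: CDK2 measured as one member of a broad kinome profiling panel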
[24] = molecular target: MAP kinase-interacting serine/threonine-protein kinase 2 (Homo sapiens, UniProt Q9HBH9)
[25] = molecular target: Serine/threonine-protein kinase pim-1 (Homo sapiens, UniProt P11309)
[26] = molecular target: Interleukin-1 receptor-associated kinase 4 (Homo sapiens, UniProt Q9NWZ3)
[27] = nonselective inhibitors of cellular cAMP signaling, dose response, counter-screen for MC4R biased antagonist project, cell-based, TR-FRET cAMP detection (AID 602305);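 also: U2OS cells stimulated with forskolin near its EC80 as the cAMP inducer; potency is for inhibition of forskolin-stimulated cAMP signaling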
Melanocortin receptor 4 = Melanocortin receptor 4 (Homo sapiens, UniProt P32245); assay: MC4R antagonist potency on cAMP, dose response, cell-based, TR-FRET, biased antagonists (AID 602298);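 also: antagonist potency against agonist-stimulated cAMP production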

Sequence of Glycogen synthase kinase-3 beta (P49841 whole entry): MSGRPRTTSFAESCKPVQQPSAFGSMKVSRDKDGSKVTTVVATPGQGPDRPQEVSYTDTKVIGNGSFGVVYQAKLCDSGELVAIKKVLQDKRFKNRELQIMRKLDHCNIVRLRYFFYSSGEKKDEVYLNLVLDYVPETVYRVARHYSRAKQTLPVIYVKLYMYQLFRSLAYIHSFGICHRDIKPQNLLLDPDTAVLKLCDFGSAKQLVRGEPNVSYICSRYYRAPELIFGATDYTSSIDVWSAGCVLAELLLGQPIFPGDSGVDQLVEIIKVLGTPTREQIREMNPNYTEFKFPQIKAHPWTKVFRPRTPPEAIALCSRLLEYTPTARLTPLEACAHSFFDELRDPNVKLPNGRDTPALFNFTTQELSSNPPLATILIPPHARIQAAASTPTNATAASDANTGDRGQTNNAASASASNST
Sequence of Dual specificity protein kinase CLK4 (Q9HAZ1 whole entry): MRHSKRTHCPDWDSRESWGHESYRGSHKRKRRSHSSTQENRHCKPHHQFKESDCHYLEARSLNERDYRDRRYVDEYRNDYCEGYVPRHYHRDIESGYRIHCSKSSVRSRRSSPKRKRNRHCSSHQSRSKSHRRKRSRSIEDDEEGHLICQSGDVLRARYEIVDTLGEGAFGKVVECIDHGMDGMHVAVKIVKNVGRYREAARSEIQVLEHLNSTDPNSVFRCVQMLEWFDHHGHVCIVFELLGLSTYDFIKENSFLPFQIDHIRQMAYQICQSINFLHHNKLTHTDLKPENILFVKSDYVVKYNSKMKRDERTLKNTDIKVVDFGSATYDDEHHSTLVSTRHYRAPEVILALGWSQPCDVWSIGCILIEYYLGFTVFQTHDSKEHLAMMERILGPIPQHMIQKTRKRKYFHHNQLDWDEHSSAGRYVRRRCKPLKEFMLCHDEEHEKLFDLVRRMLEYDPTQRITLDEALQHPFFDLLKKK
Sequence of Sphingosine 1-phosphate receptor 2 (O95136 whole entry): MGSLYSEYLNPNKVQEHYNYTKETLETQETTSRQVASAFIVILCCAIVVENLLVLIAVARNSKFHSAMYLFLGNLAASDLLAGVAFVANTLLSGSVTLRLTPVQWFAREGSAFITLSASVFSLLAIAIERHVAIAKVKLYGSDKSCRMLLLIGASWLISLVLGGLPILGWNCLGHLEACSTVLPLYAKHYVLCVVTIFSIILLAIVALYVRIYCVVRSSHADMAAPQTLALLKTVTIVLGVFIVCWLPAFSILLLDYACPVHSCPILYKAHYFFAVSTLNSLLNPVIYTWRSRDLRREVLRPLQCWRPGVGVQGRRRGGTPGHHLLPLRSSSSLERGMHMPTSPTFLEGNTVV
Sequence of Vascular endothelial growth factor receptor 2 (P35968 whole entry): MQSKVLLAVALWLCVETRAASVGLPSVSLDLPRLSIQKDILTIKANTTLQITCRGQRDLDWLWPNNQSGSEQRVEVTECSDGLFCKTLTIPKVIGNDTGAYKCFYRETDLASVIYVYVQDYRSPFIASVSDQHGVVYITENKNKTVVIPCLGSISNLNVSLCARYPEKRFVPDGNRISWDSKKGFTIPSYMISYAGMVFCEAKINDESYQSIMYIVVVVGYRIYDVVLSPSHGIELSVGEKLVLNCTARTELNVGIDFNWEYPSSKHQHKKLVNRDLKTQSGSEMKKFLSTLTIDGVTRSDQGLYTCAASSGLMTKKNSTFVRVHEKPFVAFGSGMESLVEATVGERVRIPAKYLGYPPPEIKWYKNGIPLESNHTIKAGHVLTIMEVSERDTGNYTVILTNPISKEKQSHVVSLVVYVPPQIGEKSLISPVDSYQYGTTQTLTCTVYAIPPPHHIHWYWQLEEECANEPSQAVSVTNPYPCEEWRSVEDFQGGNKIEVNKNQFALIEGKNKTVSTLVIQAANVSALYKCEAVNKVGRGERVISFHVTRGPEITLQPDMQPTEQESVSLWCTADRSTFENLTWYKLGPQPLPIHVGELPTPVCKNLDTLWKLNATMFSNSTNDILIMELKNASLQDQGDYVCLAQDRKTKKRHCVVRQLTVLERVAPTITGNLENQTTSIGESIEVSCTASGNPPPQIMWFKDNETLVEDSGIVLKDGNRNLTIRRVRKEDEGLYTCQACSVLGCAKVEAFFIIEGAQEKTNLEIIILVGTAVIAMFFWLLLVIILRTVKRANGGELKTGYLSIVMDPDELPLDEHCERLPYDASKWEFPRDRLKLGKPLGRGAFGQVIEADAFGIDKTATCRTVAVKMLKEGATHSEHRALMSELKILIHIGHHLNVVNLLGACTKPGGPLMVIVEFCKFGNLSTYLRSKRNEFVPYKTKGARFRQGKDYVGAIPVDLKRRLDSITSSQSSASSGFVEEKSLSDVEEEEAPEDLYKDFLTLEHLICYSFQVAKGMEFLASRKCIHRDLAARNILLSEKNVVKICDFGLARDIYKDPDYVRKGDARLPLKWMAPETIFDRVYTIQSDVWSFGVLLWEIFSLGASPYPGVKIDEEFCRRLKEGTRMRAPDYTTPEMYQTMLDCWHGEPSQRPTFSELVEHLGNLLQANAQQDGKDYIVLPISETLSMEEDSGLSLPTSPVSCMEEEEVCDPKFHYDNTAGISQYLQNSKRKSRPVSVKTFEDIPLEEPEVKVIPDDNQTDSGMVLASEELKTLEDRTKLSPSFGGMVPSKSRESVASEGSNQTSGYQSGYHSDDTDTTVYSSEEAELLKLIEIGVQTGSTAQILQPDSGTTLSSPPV
Sequence of Proto-oncogene tyrosine-protein kinase receptor Ret (P07949 whole entry): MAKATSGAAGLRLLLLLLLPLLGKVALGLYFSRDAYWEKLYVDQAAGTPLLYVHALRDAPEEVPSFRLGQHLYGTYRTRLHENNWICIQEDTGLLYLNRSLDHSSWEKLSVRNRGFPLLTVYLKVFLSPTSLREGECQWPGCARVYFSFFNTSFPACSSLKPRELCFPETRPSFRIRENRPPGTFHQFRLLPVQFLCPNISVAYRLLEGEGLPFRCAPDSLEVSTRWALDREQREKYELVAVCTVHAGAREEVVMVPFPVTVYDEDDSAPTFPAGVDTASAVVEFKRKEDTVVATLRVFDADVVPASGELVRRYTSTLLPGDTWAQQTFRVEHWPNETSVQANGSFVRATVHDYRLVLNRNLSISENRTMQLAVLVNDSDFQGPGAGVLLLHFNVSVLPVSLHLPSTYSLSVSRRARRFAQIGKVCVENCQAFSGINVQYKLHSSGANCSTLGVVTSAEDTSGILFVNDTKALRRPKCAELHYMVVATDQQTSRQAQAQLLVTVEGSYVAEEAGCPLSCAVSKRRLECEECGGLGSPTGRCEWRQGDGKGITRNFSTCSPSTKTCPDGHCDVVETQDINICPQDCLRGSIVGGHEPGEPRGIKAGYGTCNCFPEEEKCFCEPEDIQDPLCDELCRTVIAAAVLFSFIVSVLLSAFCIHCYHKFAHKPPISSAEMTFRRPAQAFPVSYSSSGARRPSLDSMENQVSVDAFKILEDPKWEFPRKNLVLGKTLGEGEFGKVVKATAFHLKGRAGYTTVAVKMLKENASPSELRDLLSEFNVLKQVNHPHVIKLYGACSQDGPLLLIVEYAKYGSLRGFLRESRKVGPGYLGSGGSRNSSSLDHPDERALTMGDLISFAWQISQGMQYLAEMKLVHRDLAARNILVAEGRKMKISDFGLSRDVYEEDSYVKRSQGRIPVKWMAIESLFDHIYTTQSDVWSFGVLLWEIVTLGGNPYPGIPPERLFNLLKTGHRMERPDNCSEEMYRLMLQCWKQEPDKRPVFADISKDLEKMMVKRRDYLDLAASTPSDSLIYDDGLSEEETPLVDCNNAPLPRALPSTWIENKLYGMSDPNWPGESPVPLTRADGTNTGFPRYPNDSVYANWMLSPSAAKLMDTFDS
Sequence of Interleukin-1 receptor-associated kinase 4 (Q9NWZ3 whole entry): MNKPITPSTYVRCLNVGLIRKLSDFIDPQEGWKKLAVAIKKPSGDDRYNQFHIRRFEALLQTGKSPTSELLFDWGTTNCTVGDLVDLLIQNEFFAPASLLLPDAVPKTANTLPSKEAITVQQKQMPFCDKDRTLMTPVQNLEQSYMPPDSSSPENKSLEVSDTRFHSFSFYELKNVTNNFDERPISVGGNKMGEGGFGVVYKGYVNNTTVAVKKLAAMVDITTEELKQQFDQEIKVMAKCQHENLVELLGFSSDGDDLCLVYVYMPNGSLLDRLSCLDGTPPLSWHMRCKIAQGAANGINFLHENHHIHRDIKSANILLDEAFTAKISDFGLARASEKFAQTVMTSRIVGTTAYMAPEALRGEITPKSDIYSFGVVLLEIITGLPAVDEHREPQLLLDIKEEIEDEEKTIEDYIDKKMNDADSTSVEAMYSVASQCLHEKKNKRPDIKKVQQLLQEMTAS
Sequence of Cyclin-dependent kinase 8 (P49336 whole entry): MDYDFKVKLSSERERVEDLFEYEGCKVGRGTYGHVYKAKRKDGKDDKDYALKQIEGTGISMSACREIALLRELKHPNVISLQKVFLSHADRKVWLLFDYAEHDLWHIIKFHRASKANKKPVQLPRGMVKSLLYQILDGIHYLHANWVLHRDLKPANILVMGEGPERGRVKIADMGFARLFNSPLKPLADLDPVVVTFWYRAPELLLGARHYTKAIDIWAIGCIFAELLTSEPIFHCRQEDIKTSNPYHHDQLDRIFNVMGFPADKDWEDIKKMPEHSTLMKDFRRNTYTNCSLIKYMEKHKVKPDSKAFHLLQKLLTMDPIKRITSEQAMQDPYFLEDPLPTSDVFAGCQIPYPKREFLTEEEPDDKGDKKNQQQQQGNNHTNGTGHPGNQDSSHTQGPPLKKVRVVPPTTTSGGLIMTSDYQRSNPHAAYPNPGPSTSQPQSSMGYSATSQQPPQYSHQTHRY
Sequence of Aurora kinase A (O14965 whole entry): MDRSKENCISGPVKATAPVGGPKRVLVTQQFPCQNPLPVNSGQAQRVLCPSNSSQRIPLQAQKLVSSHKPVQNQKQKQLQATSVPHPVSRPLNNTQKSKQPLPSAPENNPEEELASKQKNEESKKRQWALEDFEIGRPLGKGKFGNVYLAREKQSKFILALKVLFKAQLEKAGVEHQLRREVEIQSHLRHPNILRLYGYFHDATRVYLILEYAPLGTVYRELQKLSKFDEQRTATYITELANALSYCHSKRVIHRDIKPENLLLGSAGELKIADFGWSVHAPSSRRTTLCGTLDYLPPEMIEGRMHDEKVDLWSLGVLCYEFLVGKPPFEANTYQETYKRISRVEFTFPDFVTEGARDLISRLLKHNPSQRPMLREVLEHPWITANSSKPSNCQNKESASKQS

CC/N=C1/S/C(=C/c2cc(C)n(-c3ccc(Cl)cc3F)c2C)C(=O)N1CC
EC50 [1]: 0.274 µM (active) | EC50 [2]: 0.0367 µM (active) | EC50 [3]: > 25 µM (inactive) | EC50 [4]: > 25 µM (inactive)

O=C1CN2C(=NN1)COc1ccccc12
Ki [5]: 3.98 µM (active) | Ki [6]: > 100 µM (inactive) | Ki [7]: > 63.1 µM (inactive) | Ki (Activated CDC42 kinase 1): 25.1 µM (active) | Ki (Focal adhesion kinase 1): 100 µM (active) | Ki [8]: 39.8 µM (active) | Ki [9]: 3.98 µM (active) | Ki [10]: 3.98 µM (active) | Ki (Aurora kinase A): > 63.1 µM (inactive) | Ki [11]: 50.1 µM (active) | Ki [12]: 31.6 µM (active) | Ki [13]: > 100 µM (inactive) | Ki [14]: 31.6 µM (active) | Ki [15]: 50.1 µM (active) | Ki [16]: 5.01 µM (active) | Ki [17]: > 100 µM (inactive) | Ki [18]: 10 µM (active) | Ki [19]: 63.1 µM (active)

O=C(O)c1ccccc1Nc1ccnc(NCc2cccc(O)c2)n1
Ki [20]: > 3.16 µM (inactive) | Ki [21]: 0.631 µM (active) | Ki [22]: 0.0316 µM (active) | Ki [8]: > 7.94 µM (inactive) | Ki [9]: 5.01 µM (active) | Ki [23]: > 7.94 µM (inactive) | Ki [24]: > 10 µM (inactive) | Ki [12]: 1.26 µM (active) | Ki [25]: 2 µM (active) | Ki [26]: > 10 µM (inactive)

O=C(Nc1ccccc1)OC1CCC2CC1CCC2OC(=O)Nc1ccccc1 (centres undefined)
IC50 [27]: > 64.6 µM (inactive) | IC50 (Melanocortin receptor 4): 7.46 µM (active)
